According to patent US20100190849A1, “Novel Clerodanes and Methods for Repelling Arthropods” (priority 2006, published 2010):

System: Aedes aegypti
Assay: Total mosquito toxic knockdown after K & D module exposure (Experiment 8)
Type: in vivo
Conditions: Exp. 8, 25 nmol/cm^2 cloth; for Total Knock down 6 min: dead mosquitoes 6 min post-treatment exposure; for Total knock down 1 hr: dead mosquitoes 1 hr post-treatment exposure; for Total knock down 24 hr: dead mosquitoes 24 hr post-treatment exposure
Description: Plant extracts, fractions, or isolated pure plant derived compounds in 95% ethanol solution were each randomly applied to six-4×5 cm areas of organdy cloth and positioned over the membrane-covered blood. A replicate consisted of six treatments: four test chemicals or extract fractions, 95% ethanol treated cloth as control and unfractionated plant extract or a standard repellent compound, (1S, 2′S)-2-methylpiperidinyl-3-cyclohexen-1-carboxamide (SS220) at 25 nmol/cm^2 cloth. The 25 nmol SS220/cm^2 cloth dose was used as a standard, because it was known from human volunteer and in vitro assays to consistently suppress mosquito biting by 80% or more compared to controls in replicated assays (Klun, J. A., et al., Journal of the American Mosquito Control Association, 21: 64-70 (2005)). […] Routinely, a six-celled K & D module containing five mosquitoes/cell was positioned over cloth treatments covering the six blood-membrane wells, and trap doors of the K&D modules were opened to expose the treatments to the sets of mosquitoes. After a 3 minute exposure, the number of mosquitoes biting through cloth treatments in each cell was recorded and mosquitoes were prodded back into the cells. In Experiment 8, we retained all mosquitoes in their respective K&D module cells, each fitted with a water-moist piece of cotton, and observed the mosquitoes for total mosquito toxic knockdown at 6 min, 1 hr, and 24 hr post-treatment exposure. Experiments were replicated 12, 18, 32, or 56 times. Thus, 60, 90, 160. or 280 mosquitoes were tested against each treatment depending on the experiment, and the proportion of mosquitoes not biting for each treatment was calculated. For each experiment, conducted in different time periods, logistic regression was used to make two sets of one degree-of-freedom contrasts (t-tests): treatments vs. control and treatments vs. SS220 for anti-biting activity within each experiment. The level of significance was set at P=0.05. In all, we conducted 8 biological experiments, and all experiments used Ae. aegypti as the test mosquito with exception of Experiment 7 which used An. stephensi.
Experiment 8: This experiment (12 replicates) compared the antibiting activities of a mixture (25 nmol/cm^2 cloth) of 11.5% callicarpenal, 47.1% intermedeol, and 41.4% spathulenol. The percentage composition of the mixture was a normalized percentage of active components in C. japonica essential oil based upon GC-MS analysis total ion Area % analysis based on largest peaks. Other treatments in the experiment were SS220, callicarpenal, intermedeol, and spathulenol each at 25 nmol/cm^2 cloth versus control. In addition to measurement of anti-biting activity, the number of dead mosquitoes observed at three time intervals were recorded for the six treatments.

SMILES	Total Knock down 6 min	Total knock down 1 hr	Total knock down 24 hr
CC1=CCC[C@@H]2[C@@](C)(CC=O)[C@H](C)CC[C@@]12C [callicarpenal, 13,14,15,16-tetranorclerod-3-en-12-al]	0	1	5
C=C(C)C1CCC2(C)CCCC(C)(O)C2C1 [intermedeol, (4S,5S,7R,10S)-eudesm-11-en-4-ol]	1	1	2
